# Source: publication PMC5061317, “Transactivation Assays to Assess Canine and Rodent Pregnane X Receptor (PXR) and Constitutive Androstane Receptor (CAR) Activation” (PLoS ONE, 2016)
# “And” between values parts separate entries of the source, which are not always exact repeats. Equal entries are not always repeated. Structures can show the parent of a compound that is named as a salt.
# Legend:
# [1] = system: canine PXR; assay: Canine PXR transactivation assay (HepG2 transiently transfected, CYP3A4 luciferase reporter); details: 48 h
# Procedure: To generate canine PXR (Accession number: XM_535750.3) with a start codon replicating that of human PXR (Accession number: AY091855), a Canis lupus familiaris liver cDNA was employed as the template. PCR conditions were 98°C for 2 min, 35 cycles of 98°C for 1 min, 59°C for 1 min and 72°C for 1 min 45 sec, followed by 72°C for 7 min and cooling to 4°C.
# (§1) HepG2 cells were seeded in 10-cm cell culture dishes and incubated until 60–70% confluency (about 5 days). For transfections, dishes were rinsed with phosphate buffered saline (PBS) and cells incubated for 1–4 h in OptiMEM (Life Technologies). LipofectAMINE 2000 (Life Technologies) was used at a 2:1 ratio (μl of transfection reagent to μg of DNA). For transfections involving canine and rat CAR3, 24 μg of total DNA was used (9 μg of luciferase reporter construct, 7.5 μg of either empty expression vector or CAR expression construct and 7.5 μg of the hRXRα construct). For transfections with the canine PXR, 21 μg of total DNA was employed (12 μg of luciferase reporter containing CYP3A4 proximal and distal enhancers and 9 μg of either empty expression vector or plasmid containing canine PXR). Transfected HepG2 cells were incubated at 37°C, 5% CO2 for 19–24 h. The cells were then trypsinized with TrypLE Express solution (Life Technologies) and either frozen in the presence of 10% DMSO for future use or seeded into clear bottom 96-well assay plate at a density of 5x10^4 cells/well and incubated at 37°C, 5% CO2 for 24 h.
# (§2) For luciferase reporter assays involving transient transfectants, either freshly transfected cells or cells that have been stored in liquid N2 were seeded in 96-well plates as described above. For the rPXR stable cell line, cells were seeded into a 96-well plate at a density of 2x10^4 cells/well. Following a 24 h recovery, transiently transfected cells or stably integrated rat PXR cells were treated with various chemicals dissolved in DMSO in triplicate wells. Phenobarbital was the only compound that was dissolved in sterile water. […] All treatments were performed for 48 h.
# (§3) Assessment of cell viability and transcriptional activation was performed in the same wells using the CellTiter-Fluor cell viability assay and ONE-Glo Luciferase assay. Fluorescence was determined on a BioTek Synergy 2 Luminometer (BioTek Instruments, Winooski, VT) with excitation at 400 nm and emission at 510 nm. Following viability determination luminescence was monitored.
# (§4) Fluorescent light units were utilized to normalize for viable cell number in the luciferase (transcriptional activation) assay and expressed as the average of three determinations/chemical agent and concentration. The average luminescent units were divided by the average for solvent control to determine the fold activation. Data is expressed as mean ± standard error (SE) of three separate experiments performed in triplicate. The data was further normalized by dividing the values for each chemical by values obtained from assays with empty expression vector control. One-way multiple comparison ANOVA test in concert with Uncorrected Fisher’s LSD posttest was used to compare treatment groups with the negative controls. The significance threshold was set at p < 0.01. All statistical analyses were performed using Prism V6.0c (GraphPad, San Diego, CA). To determine receptor activation kinetics for positive controls, EC50 and EMAX values were calculated using nonlinear regression analysis of typical log dose-response curves using Prism V6.0c (GraphPad, San Diego, CA).
# [2] = molecular target: T1, rat PXR (Rattus norvegicus, UniProt Q9R1A7); assay: Rat PXR transactivation assay (rPXR stable cell line, CYP3A4 luciferase reporter); details: 48 h
# T1 sequence (Q9R1A7 1-431): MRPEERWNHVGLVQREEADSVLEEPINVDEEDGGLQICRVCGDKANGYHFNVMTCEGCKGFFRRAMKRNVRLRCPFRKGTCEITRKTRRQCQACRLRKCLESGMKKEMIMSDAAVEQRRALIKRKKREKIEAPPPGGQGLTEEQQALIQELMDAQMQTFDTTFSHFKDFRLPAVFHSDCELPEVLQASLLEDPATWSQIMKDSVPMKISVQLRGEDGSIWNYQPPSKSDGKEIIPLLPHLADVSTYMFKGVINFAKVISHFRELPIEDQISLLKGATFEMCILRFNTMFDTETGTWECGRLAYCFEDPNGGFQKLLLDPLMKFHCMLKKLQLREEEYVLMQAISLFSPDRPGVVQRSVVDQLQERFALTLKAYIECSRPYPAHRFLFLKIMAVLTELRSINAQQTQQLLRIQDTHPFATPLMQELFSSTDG
# Procedure: Human hepatoma cell line, HepG2 was obtained from American Type Culture Collection (Rockville, MD) and maintained in DMEM supplemented with 10% FBS, 100 U/ml penicillin and 100 μg /ml streptomycin at 37°C, 5% CO2. The stable cell line, rPXR, harboring rat PXR and the CYP3A4 promoter and enhancer linked to luciferase was produced and maintained as described previously.
# as §2, §3, §4
# [3] = molecular target: T2, rat CAR3 (Rattus norvegicus, UniProt Q9QUS1, INS280APYLT); assay: Rat CAR3 transactivation assay with CYP2B6 promoter/enhancer reporter (rCAR3/2B6); type: cell-based; details: 10 μM, 48 h, above DMSO treated cells, mean ± SE
# T2 construct: expressed in transfected cells; host or cells: HepG2 (transient transfection)
# T2 sequence (Q9QUS1 with tags, fused parts or gaps INS280APYLT): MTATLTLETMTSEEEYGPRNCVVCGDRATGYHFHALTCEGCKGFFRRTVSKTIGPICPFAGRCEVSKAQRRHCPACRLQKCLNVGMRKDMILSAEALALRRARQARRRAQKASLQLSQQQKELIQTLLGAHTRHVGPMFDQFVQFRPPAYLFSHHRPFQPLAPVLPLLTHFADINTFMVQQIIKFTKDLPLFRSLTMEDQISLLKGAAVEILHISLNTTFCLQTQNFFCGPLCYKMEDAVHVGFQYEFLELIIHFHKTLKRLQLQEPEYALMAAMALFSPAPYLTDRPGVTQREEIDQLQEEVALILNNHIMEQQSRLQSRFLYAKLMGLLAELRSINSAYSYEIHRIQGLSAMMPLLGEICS
# T2 sequence (P19793 1-462 partner): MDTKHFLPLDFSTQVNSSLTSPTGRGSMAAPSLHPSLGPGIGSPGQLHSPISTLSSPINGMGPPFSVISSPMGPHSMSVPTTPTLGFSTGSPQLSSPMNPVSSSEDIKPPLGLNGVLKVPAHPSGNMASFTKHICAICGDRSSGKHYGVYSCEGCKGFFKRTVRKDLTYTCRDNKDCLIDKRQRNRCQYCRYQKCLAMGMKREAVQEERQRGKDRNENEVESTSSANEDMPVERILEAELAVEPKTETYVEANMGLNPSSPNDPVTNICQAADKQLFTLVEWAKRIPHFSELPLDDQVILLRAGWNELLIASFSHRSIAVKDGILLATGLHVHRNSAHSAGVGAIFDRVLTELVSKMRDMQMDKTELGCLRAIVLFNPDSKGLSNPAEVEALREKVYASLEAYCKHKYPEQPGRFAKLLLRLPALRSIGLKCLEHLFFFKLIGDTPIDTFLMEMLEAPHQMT
# Procedure: (§5) To construct an expression vector harboring canine CAR3, reference CAR sequence (CAR1) for canine (Accession number: FJ202015) was amplified from C. familiaris liver cDNA. PCR conditions were 98°C for 2 min, 30 cycles of 98°C for 30 sec and 72°C for 1 min, followed by 72°C for 7 min and cooling to 4°C. The resulting PCR product was cloned into the pCR2.1 vector for sequence analysis and subsequently cloned into a pCDNA 3.1 expression vector (Life Technologies, Carlsbad, CA). […] Canine CAR1 was mutated to obtain CAR3 by introducing […] motif. This was performed using forward primer: 5’- […] -3’ and reverse primer: 5’- […] -3’ in concert with QuikChange Lightning mutagenesis kit (Agilent) according to manufacturer’s instructions. The presence of correct canine CAR3 was verified by sequence analysis. […]
# as §3
# (§6) Fluorescent light units were utilized to normalize for viable cell number in the luciferase (transcriptional activation) assay and expressed as the average of three determinations/chemical agent and concentration. […]
# [4] = molecular target: T2, rat CAR3; assay: Rat CAR3 transactivation assay with CYP3A4 promoter/enhancer reporter (rCAR3/3A4); type: cell-based; details: 10 μM, 48 h, above DMSO treated cells, mean ± SE
# Procedure: as §5, §3, §6
# [5] = molecular target: canine CAR3 (Canis lupus familiaris, UniProt B6E443, INS263APYLT); details: 10 μM, 48 h, above DMSO treated cells, mean ± SE
# canine CAR3, sequence (B6E443 entry or part of it INS263APYLT, one chain of several): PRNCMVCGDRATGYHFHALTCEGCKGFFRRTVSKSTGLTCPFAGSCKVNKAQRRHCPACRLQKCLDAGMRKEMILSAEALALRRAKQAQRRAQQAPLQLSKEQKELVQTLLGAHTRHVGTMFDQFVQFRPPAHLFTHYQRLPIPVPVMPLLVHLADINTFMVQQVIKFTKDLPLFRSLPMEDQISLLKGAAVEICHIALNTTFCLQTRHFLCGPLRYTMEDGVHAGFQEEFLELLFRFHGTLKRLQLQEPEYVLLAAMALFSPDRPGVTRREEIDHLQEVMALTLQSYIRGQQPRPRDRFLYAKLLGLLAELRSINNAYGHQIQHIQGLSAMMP
# Procedure: To construct an expression vector harboring canine CAR3, reference CAR sequence (CAR1) for canine (Accession number: FJ202015) was amplified from C. familiaris liver cDNA. PCR conditions were 98°C for 2 min, 30 cycles of 98°C for 30 sec and 72°C for 1 min, followed by 72°C for 7 min and cooling to 4°C. The resulting PCR product was cloned into the pCR2.1 vector for sequence analysis and subsequently cloned into a pCDNA 3.1 expression vector (Life Technologies, Carlsbad, CA). […] Canine CAR1 was mutated to obtain CAR3 by introducing […] motif. This was performed using forward primer: 5’- […] -3’ and reverse primer: 5’- […] -3’ in concert with QuikChange Lightning mutagenesis kit (Agilent) according to manufacturer’s instructions. The presence of correct canine CAR3 was verified by sequence analysis. CYP2B6 luciferase reporter vector containing the XREM-PBREM promoter and enhancer was obtained from Dr. Omiecinski (Penn State University) and has been described previously. To generate rat CAR3, a plasmid containing reference CAR (CAR1) underwent mutagenesis as described above using 5’- […] -3’ as the forward primer and 5’- […] -3’ as the reverse primer. […] Firefly luciferase reporter construct harboring CYP3A4 proximal and distal enhancer regions has been described earlier.
# as §1, with “The cells were then trypsinized with TrypLE Express solution (Life Technologies) and either frozen in the presence of 10% DMSO for future use or seeded into clear bottom 96-well assay plate at a density of 5x10^4 cells/well and incubated at 37°C, 5% CO2 for 24 h.” left out
# as §3, §6
# [6] = 10 μM, above DMSO treated cells, mean ± SE
# [7] = 100 μM, above DMSO treated cells, mean ± SE
# [8] = panel of 19 compounds, concentration not given
smiles,measurement,setting,value
"C=C[C@@]1(C)CC(=O)[C@]2(O)[C@@]3(C)[C@@H](O)CCC(C)(C)[C@@H]3[C@H](O)[C@H](OC(C)=O)[C@@]2(C)O1 [Forskolin, forskolin]",Canine PXR Fold Activation,[1]; [6],5.6 ± 1.4 fold
same,Rat PXR Fold Activation,"[2]; rat, 10 μM",5.8 ± 0.5 fold
"COc1ccc2[nH]c([S+]([O-])Cc3ncc(C)c(OC)c3C)nc2c1 (stereo not shown) [Omeprazole, omeprazole]",Canine PXR Fold Activation,[1]; [7],9.6 ± 1.3 fold
same,Rat PXR Fold Activation,"[2]; rat, 100 μM",9.8 ± 0.9 fold
"Clc1cnc(Oc2ccc(Oc3ncc(Cl)cc3Cl)cc2)c(Cl)c1 [TCPOBOP, 1,4-Bis-[2-(3,5-dichloropyridyloxy)]benzene, 3,3′,5,5′-Tetrachloro-1,4-bis(pyridyloxy)benzene]",Rat PXR Fold Activation,[2]; [6],failed to elicit significant activation
"CC(=O)[C@H]1[C@H](C#N)C[C@H]2[C@@H]3CC=C4C[C@@H](O)CC[C@]4(C)[C@H]3CC[C@@]21C [Pregnenolone 16α carbonitrile, pregnenolone-16 α -carbonitrile]","Emax, rat PXR activation","[2]; dose-response curve, above 0.1% DMSO",11.4 fold
same,EC50,"[2]; read-out: EC50, rat PXR activation, dose-response curve, nonlinear regression",140 nM
"O=C1Nc2ccc(Cl)cc2[C@@](C#CC2CC2)(C(F)(F)F)O1 [Efavirenz, efavirenz]","Rat CAR3 Fold Activation, CYP2B6 promoter and enhancer",[3],3.9 ± 0.6 fold
same,"Rat CAR3 Fold Activation, CYP3A4 promoter and enhancer",[4],7.4 ± 3.3 fold
same,Rat PXR Fold Activation,"[2]; rat, 10 μM",7.5 ± 2.3 fold
"CCOP(=O)(OCC)C(=Cc1cc(C(C)(C)C)c(O)c(C(C)(C)C)c1)P(=O)(OCC)OCC [SR12813, tetraethyl 2-(3,5-di-tert-butyl-4-hydroxyphenyl)ethenyl-1,1-bisphosphonate]","Canine CAR3 Fold Activation, CYP2B6 promoter and enhancer",[5],activation only in the presence of the CYP3A4 promoter
same,"Canine CAR3 Fold Activation, CYP3A4 promoter and enhancer",[5],3.1 ± 0.7 fold and 3.1 ± 0.7^d fold
same,Canine PXR Fold Activation,[1]; [6],60.1 ± 3.1 fold
same,"Emax, canine PXR activation","[1]; dose-response 0.1 to 30 μM, above 0.1% DMSO",60.3 ± 5.5 fold and 60.3 fold
same,EC50,"[1]; read-out: EC50, canine PXR activation, dose-response 0.1 to 30 μM, nonlinear regression",1900 ± 200 nM
same,Rat PXR Fold Activation,[2]; [6],6.1 ± 0.6 fold
"CCC1(c2ccccc2)C(=O)NC(=O)NC1=O [Phenobarbital, phenobarbital sodium salt]",Canine PXR Fold Activation,[1]; [8],failed to elicit a significant activation
same,Rat PXR activation,"[2]; 1 mM, vehicle water",failed to elicit significant activation
same,Rat PXR activation,[2]; [8],failed to elicit a significant activation
O=C1NC(=O)C(c2ccccc2)(c2ccccc2)N1 [phenytoin],Canine PXR Fold Activation,[1]; [8],failed to elicit a significant activation
same,Rat PXR Fold Activation,[2]; [7],failed to elicit significant activation
same,Rat PXR activation,[2]; [8],failed to elicit a significant activation
"O=c1cc(-c2ccccc2)oc2c1ccc1ccccc12 [ANF, α-naphthoflavone]","Rat CAR3 Fold Activation, CYP2B6 promoter and enhancer",[3],3.4 ± 0.8 fold and 3.4 ± 0.8^c fold
same,"Rat CAR3 Fold Activation, CYP3A4 promoter and enhancer",[4],negligible effect
"Clc1ccc(-c2nc3sccn3c2C=NOCc2ccc(Cl)c(Cl)c2)cc1 [CITCO, 6-(4-Chlorophenyl)imidazo[2,1-b][1,3]thiazole-5-carbaldehyde O-(3,4-dichlorobenzyl)oxime]",Canine PXR Fold Activation,[1]; [6],5.4 ± 2.1 fold
"CCCCC(CC)COC(=O)c1ccccc1C(=O)OCC(CC)CCCC (stereo not shown) [DEHP, bis (2-ethylhexyl) phthalate]","Canine CAR3 Fold Activation, CYP2B6 promoter and enhancer",[5],4.3 ± 0.8 fold and 4.3 ± 0.8^c fold
same,"Canine CAR3 Fold Activation, CYP3A4 promoter and enhancer",[5],significant activation only when the CYP2B6 promoter was used
same,Rat PXR Fold Activation,[2]; [6],-
